Key:
[1] = Metabolic stability in human liver microsomes assessed as intrinsic clearance at 1 uM measured upto 60 mins by LC-MS/MS analysis; format: ADME, Microsome; conditions: read-out: CLH
[2] = biological target: Serine/threonine-protein kinase pim-1 (Homo sapiens) (UniProt P11309); assay: Inhibition of recombinant human His-tagged full length PIM1 expressed in baculovirus expression system using Ser/Thr 07 as substrate at 0.1 uM incubated for 60 mins by Z'-lyte assay relative to control
[3] = biological target: Protein kinase C beta type (Homo sapiens) (UniProt P05771); assay: Inhibition of recombinant human His-tagged full length PKCbeta1 expressed in insect expression system using Ser/Thr 07 as substrate at 0.1 uM incubated for 60 mins by Z'-lyte assay relative to control
Chain of Protein kinase C beta type (Homo sapiens) (P05771 2-671 limits assumed): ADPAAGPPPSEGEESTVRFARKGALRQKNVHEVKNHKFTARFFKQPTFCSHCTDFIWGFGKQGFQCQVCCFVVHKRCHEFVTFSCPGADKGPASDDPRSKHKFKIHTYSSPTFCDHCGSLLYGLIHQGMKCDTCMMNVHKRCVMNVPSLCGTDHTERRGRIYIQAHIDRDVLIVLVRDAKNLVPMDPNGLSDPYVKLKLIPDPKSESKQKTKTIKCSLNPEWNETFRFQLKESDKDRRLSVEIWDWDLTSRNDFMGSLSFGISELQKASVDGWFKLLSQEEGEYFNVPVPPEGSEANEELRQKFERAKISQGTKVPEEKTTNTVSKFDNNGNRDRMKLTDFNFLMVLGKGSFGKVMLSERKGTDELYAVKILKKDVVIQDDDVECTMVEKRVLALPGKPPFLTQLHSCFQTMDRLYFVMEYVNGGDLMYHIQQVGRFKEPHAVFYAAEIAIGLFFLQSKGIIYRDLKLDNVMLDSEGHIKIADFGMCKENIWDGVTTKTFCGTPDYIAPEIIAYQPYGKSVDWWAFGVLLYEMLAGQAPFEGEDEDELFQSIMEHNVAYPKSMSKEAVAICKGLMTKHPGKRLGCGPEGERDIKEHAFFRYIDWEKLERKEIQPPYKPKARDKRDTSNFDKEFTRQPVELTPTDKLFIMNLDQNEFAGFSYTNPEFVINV

[4] = biological target: Dual specificity mitogen-activated protein kinase kinase 1 (Homo sapiens) (UniProt Q02750); assay: Inhibition of recombinant human His-tagged full length MEK1 expressed in baculovirus expression system using Ser/Thr 03 as substrate at 0.1 uM incubated for 60 mins by Z'-lyte assay relative to control
Chain of Dual specificity mitogen-activated protein kinase kinase 1 (Homo sapiens) (Q02750 whole entry): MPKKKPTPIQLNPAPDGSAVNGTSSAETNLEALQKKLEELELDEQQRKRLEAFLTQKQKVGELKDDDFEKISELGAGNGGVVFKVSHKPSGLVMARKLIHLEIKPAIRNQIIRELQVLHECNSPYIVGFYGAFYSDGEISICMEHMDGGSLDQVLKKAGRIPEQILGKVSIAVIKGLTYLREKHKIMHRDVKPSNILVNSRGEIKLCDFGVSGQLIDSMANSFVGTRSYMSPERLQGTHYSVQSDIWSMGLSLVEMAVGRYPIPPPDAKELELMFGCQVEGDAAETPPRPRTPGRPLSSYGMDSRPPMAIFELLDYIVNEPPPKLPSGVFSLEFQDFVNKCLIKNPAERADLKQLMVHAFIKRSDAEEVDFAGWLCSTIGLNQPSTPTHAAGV

[5] = biological target: Mitogen-activated protein kinase 14 (Homo sapiens) (UniProt Q16539); assay: Inhibition of recombinant human GST-tagged full length p38 alpha expressed in Escherichia coli expression system using Ser/Thr 15 as substrate at 0.1 uM incubated for 60 mins by Z'-Lyte assay relative to control
Chain of Mitogen-activated protein kinase 14 (Homo sapiens) (Q16539 whole entry): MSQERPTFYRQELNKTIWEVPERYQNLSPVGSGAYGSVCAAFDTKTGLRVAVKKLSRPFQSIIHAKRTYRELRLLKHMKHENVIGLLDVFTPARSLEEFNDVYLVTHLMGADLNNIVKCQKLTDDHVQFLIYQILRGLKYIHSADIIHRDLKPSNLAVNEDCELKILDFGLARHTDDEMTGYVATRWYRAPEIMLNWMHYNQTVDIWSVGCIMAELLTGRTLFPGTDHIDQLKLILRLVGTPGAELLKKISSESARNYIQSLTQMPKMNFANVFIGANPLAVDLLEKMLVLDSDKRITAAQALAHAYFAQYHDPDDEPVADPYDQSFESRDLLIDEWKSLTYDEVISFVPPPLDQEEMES

[6] = biological target: Mitogen-activated protein kinase 8 (Homo sapiens) (UniProt P45983); assay: Inhibition of recombinant human His-tagged full length JNK1alpha1 expressed in baculovirus expression system using Ser/Thr 04 as substrate at 0.1 uM incubated for 60 mins by Z'-lyte assay relative to control
Chain of Mitogen-activated protein kinase 8 (Homo sapiens) (P45983 whole entry, the tested form may be a part): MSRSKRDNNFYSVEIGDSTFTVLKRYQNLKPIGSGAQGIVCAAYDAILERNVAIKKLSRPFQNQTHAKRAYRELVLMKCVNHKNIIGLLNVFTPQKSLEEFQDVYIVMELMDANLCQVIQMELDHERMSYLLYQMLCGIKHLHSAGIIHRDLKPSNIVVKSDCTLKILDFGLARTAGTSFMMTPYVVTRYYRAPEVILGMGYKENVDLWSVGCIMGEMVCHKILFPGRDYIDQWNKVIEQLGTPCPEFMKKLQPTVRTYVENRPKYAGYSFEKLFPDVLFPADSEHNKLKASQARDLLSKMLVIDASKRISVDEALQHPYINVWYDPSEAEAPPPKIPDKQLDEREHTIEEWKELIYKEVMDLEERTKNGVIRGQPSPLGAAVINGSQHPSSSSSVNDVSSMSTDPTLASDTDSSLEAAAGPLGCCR

[7] = biological target: cAMP-dependent protein kinase catalytic subunit alpha (Homo sapiens) (UniProt P17612); assay: Inhibition of recombinant human His-tagged PKA (1 to 351 residues) expressed in Escherichia coli expression system using Ser/Thr 01 as substrate at 0.1 uM incubated for 60 mins by Z'-lyte assay relative to control
[8] = biological target: T1, Mitogen-activated protein kinase 13 (Homo sapiens) (UniProt O15264); assay: Inhibition of recombinant human His-tagged full length p38 delta expressed in baculovirus expression system using Ser/Thr 03 as substrate at 0.1 uM incubated for 60 mins by Z'-Lyte assay relative to control
T1 sequence (whole entry): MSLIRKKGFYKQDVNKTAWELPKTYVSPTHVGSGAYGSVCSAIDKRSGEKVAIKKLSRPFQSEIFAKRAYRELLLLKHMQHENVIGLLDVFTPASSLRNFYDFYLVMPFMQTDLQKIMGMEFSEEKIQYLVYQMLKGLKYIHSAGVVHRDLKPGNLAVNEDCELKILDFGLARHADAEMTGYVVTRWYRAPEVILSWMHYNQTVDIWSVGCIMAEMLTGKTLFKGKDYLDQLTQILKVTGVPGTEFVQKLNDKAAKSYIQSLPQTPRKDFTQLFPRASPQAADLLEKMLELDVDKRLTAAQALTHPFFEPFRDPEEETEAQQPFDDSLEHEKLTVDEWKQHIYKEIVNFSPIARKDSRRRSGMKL

[9] = biological target: Tyrosine-protein kinase Fyn (Homo sapiens) (UniProt P06241); assay: Inhibition of recombinant human C-terminal His-tagged full length FYN expressed in baculovirus expression system using Tyr 02 as substrate at 0.1 uM incubated for 60 mins by Z'-Lyte assay relative to control
Chain of Tyrosine-protein kinase Fyn (Homo sapiens) (P06241 2-537 limits assumed): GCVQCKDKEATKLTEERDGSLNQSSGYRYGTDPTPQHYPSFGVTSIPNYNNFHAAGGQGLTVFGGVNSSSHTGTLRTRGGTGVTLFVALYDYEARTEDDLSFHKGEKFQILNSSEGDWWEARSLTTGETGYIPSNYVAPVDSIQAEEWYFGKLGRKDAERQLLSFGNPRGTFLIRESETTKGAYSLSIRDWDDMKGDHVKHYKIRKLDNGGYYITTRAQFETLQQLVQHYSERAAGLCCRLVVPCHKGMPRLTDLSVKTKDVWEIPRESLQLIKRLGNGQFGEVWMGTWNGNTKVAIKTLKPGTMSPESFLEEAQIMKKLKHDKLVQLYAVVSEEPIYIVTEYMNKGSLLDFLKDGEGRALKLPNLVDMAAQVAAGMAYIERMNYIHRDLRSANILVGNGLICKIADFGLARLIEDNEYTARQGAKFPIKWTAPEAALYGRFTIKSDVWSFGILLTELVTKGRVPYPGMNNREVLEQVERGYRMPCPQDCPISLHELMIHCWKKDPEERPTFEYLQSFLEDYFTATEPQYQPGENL

[10] = biological target: T2, Mitogen-activated protein kinase 12 (Homo sapiens) (UniProt P53778); assay: Inhibition of recombinant human His-tagged full length p38 gamma expressed in baculovirus expression system using Ser/Thr 03 as substrate at 0.1 uM incubated for 60 mins by Z'-Lyte assay relative to control
T2 sequence (whole entry): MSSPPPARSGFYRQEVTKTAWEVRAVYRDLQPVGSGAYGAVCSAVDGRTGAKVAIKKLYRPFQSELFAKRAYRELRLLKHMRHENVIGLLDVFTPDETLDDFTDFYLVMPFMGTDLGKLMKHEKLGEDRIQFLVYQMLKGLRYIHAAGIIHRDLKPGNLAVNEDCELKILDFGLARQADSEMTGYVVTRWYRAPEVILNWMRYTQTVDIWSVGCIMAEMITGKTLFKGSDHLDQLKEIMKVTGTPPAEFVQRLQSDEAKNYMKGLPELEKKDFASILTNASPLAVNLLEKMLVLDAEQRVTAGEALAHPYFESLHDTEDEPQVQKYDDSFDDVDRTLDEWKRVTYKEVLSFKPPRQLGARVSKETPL

[11] = biological target: Non-receptor tyrosine-protein kinase TYK2 (Homo sapiens) (UniProt P29597); assay: Inhibition of recombinant human N-terminal GST-tagged TYK2 (833 to 1187 residues) expressed in baculovirus expression system using Tyr 03 as substrate at 0.1 uM incubated for 60 mins by Z'-Lyte assay relative to control
Chain of Non-receptor tyrosine-protein kinase TYK2 (Homo sapiens) (P29597 whole entry, the tested form may be a part): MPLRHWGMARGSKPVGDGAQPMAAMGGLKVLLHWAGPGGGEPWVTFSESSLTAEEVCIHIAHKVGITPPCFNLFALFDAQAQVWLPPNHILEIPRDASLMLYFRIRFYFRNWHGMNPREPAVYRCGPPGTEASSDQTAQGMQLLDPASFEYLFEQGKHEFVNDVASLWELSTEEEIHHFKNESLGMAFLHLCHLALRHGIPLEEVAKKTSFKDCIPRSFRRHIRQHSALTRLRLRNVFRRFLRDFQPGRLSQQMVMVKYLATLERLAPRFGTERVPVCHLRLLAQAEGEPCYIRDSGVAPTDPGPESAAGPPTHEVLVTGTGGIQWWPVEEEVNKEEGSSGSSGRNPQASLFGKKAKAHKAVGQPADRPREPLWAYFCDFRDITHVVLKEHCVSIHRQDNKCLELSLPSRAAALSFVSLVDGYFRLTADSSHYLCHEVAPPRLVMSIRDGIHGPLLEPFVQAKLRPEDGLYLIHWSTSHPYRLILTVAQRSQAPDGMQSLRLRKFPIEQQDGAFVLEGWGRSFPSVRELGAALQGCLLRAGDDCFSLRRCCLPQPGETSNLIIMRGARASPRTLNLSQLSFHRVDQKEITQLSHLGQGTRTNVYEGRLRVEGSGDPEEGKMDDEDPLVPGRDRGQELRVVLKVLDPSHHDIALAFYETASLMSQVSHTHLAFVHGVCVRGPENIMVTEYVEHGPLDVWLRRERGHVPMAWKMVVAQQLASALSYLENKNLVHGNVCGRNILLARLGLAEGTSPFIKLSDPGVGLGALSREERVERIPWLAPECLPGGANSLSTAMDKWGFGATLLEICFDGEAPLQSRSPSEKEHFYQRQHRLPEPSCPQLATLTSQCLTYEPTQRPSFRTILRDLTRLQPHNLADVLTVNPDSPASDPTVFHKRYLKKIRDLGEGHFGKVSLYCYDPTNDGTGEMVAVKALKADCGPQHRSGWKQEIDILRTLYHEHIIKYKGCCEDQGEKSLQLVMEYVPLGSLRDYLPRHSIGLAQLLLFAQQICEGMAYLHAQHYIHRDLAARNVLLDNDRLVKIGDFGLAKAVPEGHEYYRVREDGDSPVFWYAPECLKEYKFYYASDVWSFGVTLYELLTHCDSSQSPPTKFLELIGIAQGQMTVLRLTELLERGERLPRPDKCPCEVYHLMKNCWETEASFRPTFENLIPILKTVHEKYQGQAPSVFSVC

[12] = biological target: Tyrosine-protein kinase Yes (Homo sapiens) (UniProt P07947); assay: Inhibition of recombinant human GST-tagged full length YES expressed in baculovirus expression system using Tyr 02 as substrate at 0.1 uM incubated for 60 mins by Z'-Lyte assay relative to control
Chain of Tyrosine-protein kinase Yes (Homo sapiens) (P07947 2-543 limits assumed): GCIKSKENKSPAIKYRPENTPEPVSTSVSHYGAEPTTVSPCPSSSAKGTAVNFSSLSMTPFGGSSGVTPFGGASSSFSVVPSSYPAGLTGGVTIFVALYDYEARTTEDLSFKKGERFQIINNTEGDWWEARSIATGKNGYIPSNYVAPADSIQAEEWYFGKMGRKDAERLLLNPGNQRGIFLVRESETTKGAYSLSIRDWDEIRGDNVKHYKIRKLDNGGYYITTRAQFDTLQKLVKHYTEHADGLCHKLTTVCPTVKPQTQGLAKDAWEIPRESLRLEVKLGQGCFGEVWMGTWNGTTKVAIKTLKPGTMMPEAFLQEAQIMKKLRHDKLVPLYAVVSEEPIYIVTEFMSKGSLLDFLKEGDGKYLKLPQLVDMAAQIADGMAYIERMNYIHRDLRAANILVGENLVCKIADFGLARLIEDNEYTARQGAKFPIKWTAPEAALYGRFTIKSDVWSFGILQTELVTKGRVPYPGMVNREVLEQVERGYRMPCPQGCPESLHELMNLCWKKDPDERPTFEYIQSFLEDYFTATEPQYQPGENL

Chain of Serine/threonine-protein kinase pim-1 (Homo sapiens) (P11309 whole entry, looked up): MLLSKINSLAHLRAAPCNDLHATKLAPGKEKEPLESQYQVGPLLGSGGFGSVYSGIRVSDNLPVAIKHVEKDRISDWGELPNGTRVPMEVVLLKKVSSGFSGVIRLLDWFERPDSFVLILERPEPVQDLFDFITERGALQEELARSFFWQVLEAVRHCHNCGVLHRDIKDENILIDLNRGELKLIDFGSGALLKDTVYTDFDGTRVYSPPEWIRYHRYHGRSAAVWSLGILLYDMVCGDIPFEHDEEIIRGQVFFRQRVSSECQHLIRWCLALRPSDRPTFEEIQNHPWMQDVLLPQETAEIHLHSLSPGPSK

| SMILES | CLint scaled at 1 µM [1] | inhibition [2] | inhibition [3] | inhibition [4] | inhibition [5] | inhibition [6] | inhibition [7] | inhibition [8] | inhibition [9] | inhibition [10] | inhibition [11] | inhibition [12] |
| --- | --- | --- | --- | --- | --- | --- | --- | --- | --- | --- | --- | --- |
| Cn1cc(NC(=O)c2cnn3cccnc23)c(-c2cc(Cl)ccc2OC(F)F)n1 | 15 mL/min/kg | 6% | 2% | 0% | 7% | 11% | -4% | 0% | 89% | 4% | 98% | 30% |
| O=C(Nc1c[nH]nc1-c1cc2ccccc2cc1OC(F)F)c1cnn2cccnc12 | 17 mL/min/kg | 4% | 13% | 0% | 2% | -5% | 5% | 6% | 78% | 5% | 95% | 33% |
| O=C(Nc1c[nH]nc1-c1cc(Cl)ccc1OC(F)F)c1cnn2cccnc12 | 14 mL/min/kg | 4% | 24% | -8% | -4% | 11% | 5% | 10% | 95% | -1% | 100% | 32% |

Reference: ChEMBL document CHEMBL4665643 (Bioorg Med Chem Lett, 2019)
